Here are results for 1 compound from patent US9145377B2, “G-quadruplex stabilising agent” (University College London, priority 2011, dated 2015).

One data set concerns renal carcinoma cells. Nature of the data set: Growth inhibition, sulforhodamine B (SRB) assay, 96 h exposure. The note with it: normoxia (20% oxygen). It counts as cell-based, human. An excerpt:
(§1) A498 human renal, 786-0 human renal, MCF-7 human breast, Mia-Pa-Ca human pancreatic, Panc-1 human pancreatic, and PC-3 human prostate cancer cells were obtained from American Type Culture Collection (Rockville, Md.). Human RCC4 and RCC4/VHL cells were obtained from Professor P. Maxwell (University College London, UK). RCC4 cells lack pVHL therefore express constitutively high levels of HIF-1α. These cells were stably transfected with a wild-type pVHL gene, as previously described. All cells were grown in humidified 95% air, 5% CO2 at 37° C. in Dulbecco's modified Eagle's medium (DMEM), RPMI or MEM medium supplemented with 10% fetal bovine serum (FBS) and 2 mM L-Glutamine according to advice from ATCC (all reagents were obtained from Gibco, Invitrogen, UK). HIF-1α and HIF-2α antibodies were obtained from BD Transduction Labs, AKT antibody was obtained from Cell Signalling Biotechnology, and lamin NC, actin, HIF-1β, HSP-90, and Raf-1 antibodies were from Santa Cruz Biotechnology.
For orientation: The SRB assay estimates cell density from bound dye.

A further data set has as its system HIF-1α. In words: Western blotting for HIF-1α protein in RCC4 / RCC4VHL cells. It counts as cell-based, human.
Excerpt: as §1
(§2) Culture flasks were incubated for various times at 37° C. in humidified air, 5% CO2 (normoxia) or 1% O2, 5% CO2, 94% N2 (hypoxia) using an InVivo Hypoxia Workstation 400 with a Ruskin hypoxic gas mixer (Biotrace International). After incubation, cells were washed twice with cold PBS equilibrated with the same gas mixture. In some studies, medium was removed at the end of incubation and stored at […] for measurement of vascular endothelial growth factor (VEGF) levels.
(§3) Western blotting was performed as described previously. Blots were quantified using ImageQuant software (Molecular Dynamics). Nuclear and cytoplasmic extracts were prepared using NE-PER Nuclear and Cytoplasmic Extraction Reagents (Pierce Biotechnology).
Cells were then lysed and Western blotting was performed probing for HIF-1α, HIF-2α, HIF-1β, or lamin NC (as a loading control).

A further data set deals with HIF-2α. In words: Western blotting for HIF-2α protein in 786-0 cells. It counts as cell-based, human. The conditions noted are these: hypoxia (1% oxygen), 4 h dose course.
Excerpt: as §1
(§4) Culture flasks were incubated for various times at 37° C. in humidified air, 5% CO2 (normoxia) or 1% O2, 5% CO2, 94% N2 (hypoxia) using an InVivo Hypoxia Workstation 400 with a Ruskin hypoxic gas mixer (Biotrace International). […]
(§5) Western blotting was performed as described previously. Blots were quantified using ImageQuant software (Molecular Dynamics). […]
(In general: A western blot detects proteins with antibodies after separation by electrophoresis.)

Another data set concerns HIF-1β. In words: Western blotting for HIF-1β protein. It counts as cell-based, human. The note with it: RCC4 or 786-0 cells, 4 h.
Excerpt: as §1, §4, §5

In a further data set the test system is HIF-1 transactivation. Nature of the data set: Luciferase reporter assay (hypoxia response element, HRE) in RCC4 cells. The format is cell-based, human. The conditions noted are these: normoxia or hypoxia (1% oxygen), 4 h. On the technique in general: In a reporter assay the amount or activity of a reporter protein is the signal.
For another data set, the system named is VEGF. Nature of the data set: VEGF measurement in cell culture medium by ELISA. The note with it: RCC4 cells, CL67 5×IC50 or dose indicated, 4 h or time indicated. It counts as cell-based, human. Here is the method: as §2
A further data set relates to HSP-90. In words: Western blotting for HSP-90 in RCC4 and RCC4VHL cells. It counts as cell-based, human. The conditions noted are these: CL67 5×IC50, normoxia (20% oxygen).
Excerpt: as §1, §3
(§6) Cells were then lysed and Western blotting was performed. Probing for HSP-90, Raf-1, AKT and actin (as a loading control).

The test system of a further data set is Raf-1. In words: Western blotting for Raf-1 in RCC4 and RCC4VHL cells. The note with it: CL67 5×IC50, normoxia (20% oxygen). The format is cell-based, human.
Excerpt: as §1, §3, §6

A further data set concerns AKT. In words: Western blotting for AKT in RCC4 and RCC4VHL cells. It counts as cell-based, human. The conditions noted are these: CL67 5×IC50, normoxia (20% oxygen).
Excerpt: as §1, §3, §6

Another data set concerns HIF-1α mRNA. Nature of the data set: Reverse transcriptase PCR (qRT-PCR) of HIF-1α transcripts in RCC4 cells. It counts as cell-based, human. The note with it: 4 h, normoxia.
The nature of data set [1]: Solubility limit in aqueous media (dose ranging, sterile dH2O). The conditions noted are these: dissolved in sterile dH2O, intra-peritoneal dose ranging in CD1 mice. It counts as physicochemical. Here is the method:
A dose range assay was performed in female CD1 mice, with an initial mean weight of 25 g (Harlan UK Ltd,).

A word on the melting point: it is the temperature, or range, at which the solid turns liquid.

Procedure for HIF-1 transactivation: A pGL3 firefly luciferase reporter plasmid containing the phosphoglycerate kinase hypoxia-responsive element was supplied by Professor P. Maxwell (University College London, UK) [1]. The empty pGL3 control plasmid and the pRL-CMV Renilla luciferase plasmids were obtained from Promega. […] Firefly and Renilla luciferase activities were measured using the Dual Luciferase Reporter Assay System (Promega) according to the manufacturer's instructions.
In FIG. 6(A) RCC4 cells were co-transfected with either a vector expressing luciferase under the control of multiple copies of the hypoxia response element (HRE; kindly donated by G. Mellillo, NCI) or an empty vector control (pGL3) in addition to a vector expressing renilla luciferase (to control for transfection efficiency). […] Luciferase activity was then measured using the Promega Dual Luciferase assay Kit and results are expressed as a percentage of the activity of untreated, normoxic cells.
Procedure for HIF-1α mRNA: Total RNA was isolated from approximately 10^7 cells using the RNeasy kit (Qiagen, Crawley, UK) according to the manufacturer's protocol. HIF-1α transcripts were quantified using two-step, quantitative real time PCR (qRTPCR). First-strand cDNA synthesis was performed for each sample with a Protoscript M-MuLV Taq RT-PCR kit (New England Biolabs, MA, USA) using 1 μg total RNA and oligo-dT primers. qPCR was performed using Stratagene Brilliant III SYBR Green master mix in a Stratagene MX-3000P instrument (Agilent, Tex., USA) according to the manufacturer's instructions using 2 ng input cDNA and primers at 300 nM. […] Samples were normalised to β-actin. Differences in PCR efficiency were normalised using relative standard curves of cDNA pooled from all samples. P-values were determined for 2000 randomisations.
Cells were then lysed and RNA was prepared using a Qiagen RNeasy kit. RT PCR was then performed to determine relative levels of HIF-1α mRNA in each sample.

In turn, `CCN(CC)CC(=O)Nc1cccc(-n2cc(-c3ccc4ccc(-c5cn(-c6cccc(NC(=O)CN(CC)CC)c6)nn5)cc4c3)nn2)c1` [CL67, N,N′-((4,4′-(Naphthalene-2,7-diyl)bis(1H-1,2,3-triazole-4,1-diyl))bis(3,1-phenylene))bis(2-(diethylamino)acetamide)] had a melting point of 97 to 99 °C. Moreover, the “sensitivity of renal cancer cells to inhibition of cell growth compared to other cancer cell lines (breast, pancreatic, prostate)” value in the data set on renal carcinoma cells is listed as “enhanced sensitivity”. Also, the “HIF-1α protein (Western blot) in RCC4VHL cells” value in the data set with HIF-1α (RCC4VHL cells (stably transfected with pVHL), 0, 1, 5 or 10×IC50, normoxia or hypoxia (1% oxygen)) is “inhibited”. Also, in the data set with HIF-1α (RCC4 cells, 0, 1, 5 or 10×IC50, normoxia (20% oxygen) or hypoxia (1% oxygen)), the “HIF-1α protein (Western blot) in RCC4 cells (lacking pVHL)” value was “inhibited”. Also, in the data set on HIF-1α (RCC4 cells, normoxia, 4 h dose course, time course at 5×IC50), the “HIF-1α protein level (Western blot)” value is reported as “inhibited”. Further, the “HIF-2α protein level (Western blot)” value with HIF-2α is on record as “inhibited”. In addition, the “HIF-1β protein level (Western blot)” value with HIF-1β is “did not affect”. The “HIF-1 transactivation (HRE luciferase activity)” value in the data set on HIF-1 transactivation is on record as “inhibited”. In addition, the “VEGF levels in medium (ELISA)” value with VEGF is “inhibited”. Further, the “expression of HSP90 (Western blot)” value in the data set with HSP-90 was “No differences”. In the data set with Raf-1, the “expression of Raf-1 (Western blot)” value is “No differences”. For the same compound, the “expression of AKT (Western blot)” value with AKT is listed as “No differences”. Besides, in the data set with HIF-1α mRNA, the “relative expression of HIF-1α mRNA compared to untreated control cells (RT PCR)” value was “inhibits formation of HIF-1α mRNA”. The “solubility limit of the drug in aqueous media” value in [1] was 10 mg/kg.
